Results published in the supplement of paper PMC10307832.

Assays:
Assay in all cases: relative viability (nuclei count vs DMSO), 5 days (fraction); higher = more cells survive
Seliciclib + Pictilisib = compound: CC[C@H](CO)Nc1nc(NCc2ccccc2)c2ncn(C(C)C)c2n1 [Seliciclib] + CS(=O)(=O)N1CCN(Cc2cc3nc(-c4cccc5[nH]ncc45)nc(N4CCOCC4)c3s2)CC1 [Pictilisib] (partner 1 µM)
Summary of the method: (§1)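 Lung cancer cell lines were pin-tool dosed in 1536-well plates on the day after seeding, with either a lone drug or a fixed anchor-drug dose plus five library-drug doses (not always all listed) in √10 steps. Nuclei were counted on 4× images after 5 days. Relative viability is the ratio of treated-well to vehicle-well nuclei counts, with each value a median of duplicate plates.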

Seliciclib + Luminespib = compound: CC[C@H](CO)Nc1nc(NCc2ccccc2)c2ncn(C(C)C)c2n1 [Seliciclib] + CCNC(=O)c1noc(-c2cc(C(C)C)c(O)cc2O)c1-c1ccc(CN2CCOCC2)cc1 [Luminespib] (partner 0.01 µM)
Summary of the method: as §1

Seliciclib + OSI-027 = compound: CC[C@H](CO)Nc1nc(NCc2ccccc2)c2ncn(C(C)C)c2n1 [Seliciclib] + COc1cccc2cc(-c3nc([C@H]4CC[C@H](C(=O)O)CC4)n4ncnc(N)c34)[nH]c12 [OSI-027] (partner 0.5 µM)
Summary of the method: as §1

Seliciclib + Palbociclib = compound: CC[C@H](CO)Nc1nc(NCc2ccccc2)c2ncn(C(C)C)c2n1 [Seliciclib] + CC(=O)c1c(C)c2cnc(Nc3ccc(N4CCNCC4)cn3)nc2n(C2CCCC2)c1=O [Palbociclib] (partner 0.5 µM)
Summary of the method: as §1

Cell Line	relative viability (Seliciclib + Pictilisib; first compound 0.08 µM)	relative viability (Seliciclib + Pictilisib; first compound 0.253 µM)	relative viability (Seliciclib + Pictilisib; first compound 0.8 µM)	relative viability (Seliciclib + Pictilisib; first compound 8 µM)	relative viability (Seliciclib + Luminespib; first compound 0.08 µM)	relative viability (Seliciclib + Luminespib; first compound 0.253 µM)	relative viability (Seliciclib + Luminespib; first compound 0.8 µM)	relative viability (Seliciclib + Luminespib; first compound 2.53 µM)	relative viability (Seliciclib + Luminespib; first compound 8 µM)	relative viability (Seliciclib + OSI-027; first compound 0.08 µM)	relative viability (Seliciclib + OSI-027; first compound 0.253 µM)	relative viability (Seliciclib + OSI-027; first compound 0.8 µM)	relative viability (Seliciclib + OSI-027; first compound 2.53 µM)	relative viability (Seliciclib + OSI-027; first compound 8 µM)	relative viability (Seliciclib + Palbociclib; first compound 0.08 µM)	relative viability (Seliciclib + Palbociclib; first compound 0.253 µM)	relative viability (Seliciclib + Palbociclib; first compound 0.8 µM)	relative viability (Seliciclib + Palbociclib; first compound 2.53 µM)	relative viability (Seliciclib + Palbociclib; first compound 8 µM)	relative viability (Seliciclib + Pictilisib; first compound 2.53 µM)
LCLC-97TM1	0.281	0.168	0.17	0.142	0.843	0.81	0.449	0.684	0.469	0.442	0.424	0.714	0.108	0.182	0.219	0.242	0.186	0.184	0.108	–
HARA	0.284	0.376	0.339	0.283	0.727	0.764	0.65	1.12	0.581	0.496	0.22	0.378	0.377	0.325	0.284	0.282	0.229	0.259	0.163	0.422
HCC-78	0.203	0.274	0.187	0.181	–	–	–	–	–	0.411	0.426	0.358	0.34	0.326	0.504	0.438	0.514	0.395	0.382	0.174
NCI-H1666	0.33	0.526	0.478	0.439	1.01	1.08	1.04	0.968	0.778	0.817	0.899	0.939	0.622	0.734	0.635	0.633	0.666	0.603	0.5	0.353
NCI-H2347	0.645	0.6	0.321	0.448	0.428	0.328	0.512	0.412	0.721	0.431	0.475	0.452	0.339	0.343	0.44	0.439	0.404	0.406	0.433	0.829
NCI-H2342	–	–	–	–	0.658	0.525	0.662	0.699	0.648	0.565	0.657	0.581	0.505	0.574	0.63	0.477	0.539	0.524	0.492	–
NCI-H838	0.469	0.468	0.432	0.294	0.356	0.27	0.332	0.28	0.344	0.425	0.44	0.325	0.247	0.292	0.216	0.257	0.211	0.169	0.197	0.408
NCI-H2023	0.227	0.224	0.232	0.182	0.681	0.832	0.703	0.569	0.421	0.418	0.304	0.396	0.188	0.323	0.366	0.324	0.295	0.183	0.159	0.164
201T	0.712	0.693	0.676	0.626	1.02	1.1	0.976	0.999	1.03	0.815	0.708	0.857	0.467	0.688	0.329	0.349	0.353	0.327	0.277	0.656
NCI-H1915	0.918	1.05	0.824	0.803	0.756	0.765	0.785	0.853	0.653	0.643	0.636	0.495	0.536	0.423	0.522	0.545	0.449	0.457	0.315	0.839
NCI-H2009	0.77	1.11	0.584	0.699	0.998	1.13	1.07	1.01	0.943	0.704	0.778	0.739	0.407	0.495	0.202	0.0934	0.162	0.155	0.161	0.762
BEN	0.596	–	0.549	0.545	0.344	0.439	0.662	0.259	0.251	0.295	0.287	0.343	0.309	0.276	0.476	0.469	0.473	0.499	0.453	0.675
PC-14	0.622	0.67	0.69	0.513	0.179	–	0.114	0.135	0.203	0.844	0.736	0.749	0.494	0.709	0.444	0.65	0.517	0.391	0.275	0.808
NCI-H2170	0.306	0.255	0.286	0.336	0.738	0.552	0.729	1.04	0.714	0.754	0.639	0.724	0.691	0.708	0.389	–	0.372	0.364	0.308	0.243
NCI-H727	0.43	0.338	0.197	0.296	0.338	0.447	0.372	0.321	0.271	0.792	0.687	0.465	0.338	0.636	0.619	0.601	0.555	0.577	0.575	0.232
NCI-H1355	0.426	0.452	0.359	0.429	0.722	0.638	0.643	0.713	0.684	0.462	0.303	0.372	0.288	0.39	0.374	0.331	0.364	0.371	0.341	0.452
NCI-H1975	0.296	0.298	0.352	0.271	0.2	0.124	0.19	0.198	0.479	0.845	0.545	0.839	0.525	0.624	0.619	0.342	0.55	0.389	0.339	0.214

Cell Line	relative viability (Seliciclib + Pictilisib; first compound 0.08 µM)	relative viability (Seliciclib + Pictilisib; first compound 0.253 µM)	relative viability (Seliciclib + Pictilisib; first compound 0.8 µM)	relative viability (Seliciclib + Pictilisib; first compound 8 µM)	relative viability (Seliciclib + Luminespib; first compound 0.08 µM)	relative viability (Seliciclib + Luminespib; first compound 0.253 µM)	relative viability (Seliciclib + Luminespib; first compound 0.8 µM)	relative viability (Seliciclib + Luminespib; first compound 2.53 µM)	relative viability (Seliciclib + Luminespib; first compound 8 µM)	relative viability (Seliciclib + OSI-027; first compound 0.08 µM)	relative viability (Seliciclib + OSI-027; first compound 0.253 µM)	relative viability (Seliciclib + OSI-027; first compound 0.8 µM)	relative viability (Seliciclib + OSI-027; first compound 2.53 µM)	relative viability (Seliciclib + OSI-027; first compound 8 µM)	relative viability (Seliciclib + Palbociclib; first compound 0.08 µM)	relative viability (Seliciclib + Palbociclib; first compound 0.253 µM)	relative viability (Seliciclib + Palbociclib; first compound 0.8 µM)	relative viability (Seliciclib + Palbociclib; first compound 2.53 µM)	relative viability (Seliciclib + Palbociclib; first compound 8 µM)	relative viability (Seliciclib + Pictilisib; first compound 2.53 µM)
LK-2	0.591	0.562	0.614	0.447	0.186	0.236	0.164	0.174	0.253	0.225	0.203	0.191	0.175	0.194	0.466	0.423	0.509	0.447	0.285	0.541
NCI-H661	0.362	0.404	0.375	0.354	0.9	1.07	0.853	0.809	0.756	0.757	0.741	0.687	0.65	0.637	0.396	0.401	0.359	0.286	0.292	0.295
NCI-H358	0.346	0.408	0.289	0.216	0.31	0.385	0.21	–	0.186	0.79	0.501	0.652	0.58	0.448	0.13	0.167	0.133	0.105	0.107	0.312
HCC-366	0.12	0.137	0.106	0.163	–	–	–	–	–	0.978	0.43	0.825	0.513	0.625	0.35	0.272	0.345	0.328	0.166	0.109
HOP-62	0.778	0.61	0.563	0.62	0.863	0.933	0.919	1	0.851	0.891	0.705	0.952	0.57	0.777	0.463	0.398	0.397	0.366	0.308	0.588
NCI-H1648	–	–	–	–	–	–	–	–	–	0.273	0.313	0.281	0.251	0.259	0.259	0.332	0.308	0.231	0.169	–
SW 1573	0.494	0.516	0.428	0.474	0.727	0.431	0.219	0.197	0.243	0.606	0.491	0.728	0.598	0.466	0.332	0.315	0.368	0.361	0.292	0.516
EBC-1	0.449	0.407	0.387	0.343	–	–	–	–	–	–	–	–	–	–	–	–	–	–	–	0.354
SW 900	–	–	–	–	0.148	0.147	0.14	0.17	0.168	0.59	0.396	0.62	0.45	0.397	0.583	0.489	0.513	0.411	0.306	–
NCI-H596	0.376	0.36	0.403	0.415	0.802	–	1	0.84	0.745	0.784	–	0.607	0.812	0.657	–	–	–	–	–	0.421
NCI-H1563	0.649	0.621	0.681	0.691	0.479	0.518	0.526	0.49	0.453	0.766	0.709	0.725	0.747	0.792	–	–	–	–	–	0.567
NCI-H1299	0.792	0.765	0.72	0.656	–	–	–	–	–	–	–	–	–	–	–	–	–	–	–	0.841
NCI-H522	–	–	–	–	1.05	0.954	1.15	1.12	0.938	0.818	0.63	0.685	0.623	0.644	0.913	1.01	0.972	0.909	0.87	–
A549	0.501	0.595	0.525	0.273	–	–	–	–	–	–	–	–	–	–	–	–	–	–	–	0.507
IA-LM	0.338	0.412	0.344	0.232	–	–	–	–	–	–	–	–	–	–	–	–	–	–	–	0.346
Calu-6	0.93	0.969	0.937	0.759	–	–	–	–	–	–	–	–	–	–	–	–	–	–	–	0.917
